PubChem BioAssay AID2060895 (Molecular Pharmacology Branch, DTP, NCI, 2025)

Tested on: PDC 899932-113-R3-J6 complex spheroid viability
Test: Anticancer human tumor 899932-113-R3-J6-PDC patient-derived melanoma cell line growth inhibition [RAS]
Settings: for IC50: curve of first compound; for viability, T/C: stronger effect = lower value; active = viability on the fitted dose curve at most 10% of control; inactive = the rest
Outline: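 Tumour cells grown as complex spheroids with HUVEC endothelial cells and mesenchymal stem cells, treated with RAS pathway inhibitor combinations. Each agent spans half-log steps from near clinical Cmax, or 10 microM where Cmax is unknown.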

[1] = second compound 0.000949 µM, first compound 0.00316 µM
[2] = second compound 0.000949 µM, first compound 0.01 µM
[3] = second compound 0.000949 µM, first compound 0.0316 µM
[4] = second compound 0.000949 µM, first compound 0.1 µM
[5] = second compound 0.000949 µM, first compound 0.316 µM
[6] = second compound 0.000949 µM, first compound 1 µM
[7] = second compound 0.003 µM, first compound 0.00316 µM
[8] = second compound 0.003 µM, first compound 0.01 µM
[9] = second compound 0.003 µM, first compound 0.0316 µM
[10] = second compound 0.003 µM, first compound 0.1 µM
[11] = second compound 0.003 µM, first compound 0.316 µM
[12] = second compound 0.003 µM, first compound 1 µM
[13] = second compound 0.00949 µM, first compound 0.00316 µM
[14] = second compound 0.00949 µM, first compound 0.01 µM
[15] = second compound 0.00949 µM, first compound 0.0316 µM
[16] = second compound 0.00949 µM, first compound 0.1 µM
[17] = second compound 0.00949 µM, first compound 0.316 µM
[18] = second compound 0.00949 µM, first compound 1 µM
[19] = second compound 0.03 µM, first compound 0.00316 µM
[20] = second compound 0.03 µM, first compound 0.01 µM
[21] = second compound 0.03 µM, first compound 0.0316 µM
[22] = second compound 0.03 µM, first compound 0.1 µM
[23] = second compound 0.03 µM, first compound 0.316 µM
[24] = second compound 0.03 µM, first compound 1 µM
[25] = second compound 0.0949 µM, first compound 0.00316 µM
[26] = second compound 0.0949 µM, first compound 0.01 µM
[27] = second compound 0.0949 µM, first compound 0.0316 µM
[28] = second compound 0.0949 µM, first compound 0.1 µM
[29] = second compound 0.0949 µM, first compound 0.316 µM
[30] = second compound 0.0949 µM, first compound 1 µM
[31] = second compound 0.3 µM, first compound 0.00316 µM
[32] = second compound 0.3 µM, first compound 0.01 µM
[33] = second compound 0.3 µM, first compound 0.0316 µM
[34] = second compound 0.3 µM, first compound 0.1 µM
[35] = second compound 0.3 µM, first compound 0.316 µM
[36] = second compound 0.3 µM, first compound 1 µM
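For viability, T/C in this document: spheroids exposed to agents for seven days before readout; 100% = DMSO vehicle control wells.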

C=CC(=O)Nc1cc(Nc2nccc(-c3cn(C)c4ccccc34)n2)c(OC)cc1N(C)CCN(C)C + CCn1c(-c2cccnc2C(C)OC)c2c3cc(ccc31)N1CCOC(CC(NC(=O)C(C(C)C)N(C)C(=O)C3(F)CCN(C(=O)C#CC(C)(C)N(C)C)CC3)C(=O)N3CCCC(N3)C(=O)OCC(C)(C)C2)C1
inactive: viability, T/C [1] 113% | viability, T/C [2] 98.3% | viability, T/C [3] 101% | viability, T/C [4] 106% | viability, T/C [5] 115% | viability, T/C [6] 102% | viability, T/C [7] 104% | viability, T/C [8] 116% | viability, T/C [9] 107% | viability, T/C [10] 104% | viability, T/C [11] 112% | viability, T/C [12] 99.5% | viability, T/C [13] 108% | viability, T/C [14] 102% | viability, T/C [15] 108% | viability, T/C [16] 101% | viability, T/C [17] 110% | viability, T/C [18] 95.1% | viability, T/C [19] 104% | viability, T/C [20] 102% | viability, T/C [21] 101% | viability, T/C [22] 112% | viability, T/C [23] 112% | viability, T/C [24] 100% | viability, T/C [25] 102% | viability, T/C [26] 99.1% | viability, T/C [27] 103% | viability, T/C [28] 105% | viability, T/C [29] 104% | viability, T/C [30] 89.8% | viability, T/C [31] 96.5% | viability, T/C [32] 85.5% | viability, T/C [33] 96% | viability, T/C [34] 92.3% | viability, T/C [35] 90.9% | viability, T/C [36] 85.8%
> 1000 nM: IC50 (second compound 0.000949 µM) | IC50 (second compound 0.003 µM) | IC50 (second compound 0.00949 µM) | IC50 (second compound 0.03 µM) | IC50 (second compound 0.0949 µM) | IC50 (second compound 0.3 µM)

O=C(c1ccc(F)c(F)c1Nc1ccc(I)cc1F)N1CC(O)([C@@H]2CCCCN2)C1 + CCn1c(-c2cccnc2C(C)OC)c2c3cc(ccc31)N1CCOC(CC(NC(=O)C(C(C)C)N(C)C(=O)C3(F)CCN(C(=O)C#CC(C)(C)N(C)C)CC3)C(=O)N3CCCC(N3)C(=O)OCC(C)(C)C2)C1
inactive: viability, T/C [1] 72.5% | viability, T/C [2] 45.1% | viability, T/C [7] 72.3% | viability, T/C [8] 43.3% | viability, T/C [13] 72.4% | viability, T/C [14] 45.5% | viability, T/C [19] 71.6% | viability, T/C [20] 38.9% | viability, T/C [25] 73% | viability, T/C [26] 38.8% | viability, T/C [31] 60.2% | viability, T/C [32] 29.6%
8.24 nM: IC50 (second compound 0.00949 µM)
7.67 nM: IC50 (second compound 0.003 µM)
6.85 nM: IC50 (second compound 0.0949 µM)
active: viability, T/C [3] 4.63% | viability, T/C [4] 3.49% | viability, T/C [5] 1.64% | viability, T/C [6] 0.82% | viability, T/C [9] 4.76% | viability, T/C [10] 3.09% | viability, T/C [11] 1.48% | viability, T/C [12] 0.53% | viability, T/C [15] 5.4% | viability, T/C [16] 3.03% | viability, T/C [17] 1.85% | viability, T/C [18] 0.35% | viability, T/C [21] 5.26% | viability, T/C [22] 3.43% | viability, T/C [23] 1.55% | viability, T/C [24] 0.48% | viability, T/C [27] 4.74% | viability, T/C [28] 2.54% | viability, T/C [29] 1.48% | viability, T/C [30] 0.61% | viability, T/C [33] 3.92% | viability, T/C [34] 2.9% | viability, T/C [35] 0.95% | viability, T/C [36] 0.52%
6.76 nM: IC50 (second compound 0.03 µM)
4.64 nM: IC50 (second compound 0.3 µM)
8.14 nM: IC50 (second compound 0.000949 µM)
